# Results taken from patent US10550105B2 (Ribon Therapeutics Inc., priority 2018, dated 2020).
# Experiments:
# [1] = target: T1, PARP7 (Homo sapiens (Human), UniProt Q7Z3E1); experiment: Enzymatic assay for inhibition of PARP7: TR-FRET displacement of biotinylated Probe A from the TIPARP active site; type: binding; details: Table A-1
# In short: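 Titrated compounds compete with the biotinylated probe; after an additional 30 min incubation at 25° C, time-delayed fluorescence (90 μs) is measured. Inhibition curves use a Hill coefficient that normally floats but may be held at 1.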
# [2] = system: NCI-H1373 lung cancer cells; experiment: Inhibition of cancer cell growth in NCI-H1373 lung cancer cells (FIG. 2); type: cell-based, human
# [3] = target: T1, PARP7; experiment: Inhibition of PARP7 (Table A-1); type: biochemical; details: comparison of separated isomers, see Table A-1
# [4] = system: 4T1-luc2-1A4 tumors; experiment: Inhibition of tumor growth, murine syngeneic model 4T1 (orthotopic, mammary fat pad); type: in vivo; details: 4T1 orthotopic in female BALB/c mice, vs vehicle (FIG. 6)
# Source text: Example G: Inhibition of Tumor Growth by Treatment with PARP7 Inhibitors For the 4T1 study female BALB/c mice were inoculated orthotopically in the mammary fat pad with 4T1-1uc2-1A4 cells for tumor development. Eight days after tumor inoculation, 45 mice with tumor size ranging from 63-88 mm^3 (average tumor size 67 mm^3) were selected and assigned into 3 groups using stratified randomization with 15 mice in each group based upon their tumor volumes. The treatments were started from the next day post randomization (defined randomization day as D0) and were treated with vehicle (0.5% methylcellulose +0.2% Tween 80), Compound 98 (500 mg/kg S.C. QD*21 days), Compound 93A (100 mg/kg S.C. BID*21 days) respectively. The tumor sizes were measured three times per week during the treatment. The entire study was terminated on D20. Mean tumor volume and SEM for both studies are plotted. Statistical significance, calculated using two-tailed unpaired t-tests in which each treatment group was compared to vehicle control, is indicated by an asterisk. Statistics were performed on groups with less than 20% animal loss (D21 for CT26, D17 for 4T1).
# [5] = system: CT26 tumors; experiment: Inhibition of tumor growth, murine syngeneic model CT26 (subcutaneous dosing); type: in vivo; details: CT26 in BALB/c mice, vs vehicle (FIG. 6)
# Protocol: For the CT26 study BALB/c mice were inoculated subcutaneously at the right flank with CT26 cells for tumor development. Four days after tumor inoculation, 36 mice with tumor size ranging from 40-55 mm^3 (average tumor size 47 mm^3) were selected and assigned into 3 groups using stratified randomization with 12 mice in each group based upon their tumor volumes. The treatments were started from the next day post randomization (defined randomization day as day 0) and were treated with vehicle (0.5% methylcellulose+0.2% Tween 80), Compound 98 (500 mg/kg S.C. QD*21 days), Compound 93A (100 mg/kg S.C. BID*21 days) respectively. The tumor sizes were measured three times per week during the treatment. The entire study was terminated on day 21. Mean tumor volume and SEM for both studies are plotted. Statistical significance, calculated using two-tailed unpaired t-tests in which each treatment group was compared to vehicle control, is indicated by an asterisk. Statistics were performed on groups with less than 20% animal loss (D21 for CT26, D17 for 4T1).
# [6] = system: interferon-beta (IFN-β); experiment: Induction of interferon-beta levels in RAW264.7 macrophages in the presence of STING agonist DMXAA (FIG. 3); type: cell-based; details: RAW264.7 mouse macrophages
# [7] = system: interferon-beta (IFN-β); experiment: Induction of interferon-beta levels in CT26 cells in the presence of STING agonist DMXAA (FIG. 3); type: cell-based; details: CT26 mouse colon cancer cells
# T1 sequence (Q7Z3E1 whole entry): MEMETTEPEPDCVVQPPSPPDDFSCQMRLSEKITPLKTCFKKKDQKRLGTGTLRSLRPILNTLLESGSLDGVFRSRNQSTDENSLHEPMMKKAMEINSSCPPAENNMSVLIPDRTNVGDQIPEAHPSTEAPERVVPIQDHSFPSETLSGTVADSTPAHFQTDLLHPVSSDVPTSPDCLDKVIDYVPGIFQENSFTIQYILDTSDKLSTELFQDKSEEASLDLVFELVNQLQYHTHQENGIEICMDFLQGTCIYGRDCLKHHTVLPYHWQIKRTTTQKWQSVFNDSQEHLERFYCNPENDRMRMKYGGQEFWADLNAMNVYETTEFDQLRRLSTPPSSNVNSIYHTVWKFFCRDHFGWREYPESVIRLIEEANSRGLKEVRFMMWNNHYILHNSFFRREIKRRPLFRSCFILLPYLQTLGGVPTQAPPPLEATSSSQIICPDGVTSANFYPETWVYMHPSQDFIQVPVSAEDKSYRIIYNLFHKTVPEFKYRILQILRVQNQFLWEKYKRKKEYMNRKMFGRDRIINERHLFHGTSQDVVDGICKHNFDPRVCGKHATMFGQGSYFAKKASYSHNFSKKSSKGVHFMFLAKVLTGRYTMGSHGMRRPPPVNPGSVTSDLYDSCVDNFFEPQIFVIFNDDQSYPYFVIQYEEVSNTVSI
SMILES,IC50 [1],growth of NCI-H1373 lung cancer cells [2],other results
"N#Cc1ccc(N2CCN(C(=O)C[C@H]3CC[C@@H]([C@@H]4CCCN4c4cn[nH]c(=O)c4C(F)(F)F)O3)CC2)nc1 [Example 141B, 6-(4-[2-[(2R,5S)-5-[(2S)-1-[6-oxo-5-(trifluoromethyl)-1,6-dihydropyridazin-4-yl]pyrrolidin-2-yl]oxolan-2-yl]acetyl]piperazin-1-yl)pyridine-3-carbonitrile]",< 100 nM,–,relative potency of the enantiomers / diastereomers [3]: more potent enantiomer
"N#Cc1ccc(N2CCN(C(=O)CCOC[C@@H]3CCCN3c3cn[nH]c(=O)c3C(F)(F)F)CC2)nc1 [Example 98, 6-[4-(3-[[(2S)-1-[6-Oxo-5-(trifluoromethyl)-1,6-dihydropyridazin-4-yl]pyrrolidin-2-yl]methoxy]propanoyl)piperazin-1-yl]pyridine-3-carbonitrile]",< 100 nM,dose-dependent decrease in growth,tumor growth ([4]; 500 mg/kg S.C. QD*21 days): significantly reduce tumor growth; interferon-beta (IFN-β) levels [6]: induction; interferon-beta (IFN-β) levels [7]: induction; tumor growth ([5]; 500 mg/kg S.C. QD*21 days): significantly reduce tumor growth
"CNCCOc1cccc2c1CN(c1cn[nH]c(=O)c1C(F)(F)F)C2 [Example 217, 5-(4-(2-(Methylamino)ethoxy)isoindolin-2-yl)-4-(trifluoromethyl)pyridazin-3(2H)-one]",100 to 1000 nM,–,–

# Further lines, with some results ahead:
IC50 [1],SMILES,growth of NCI-H1373 lung cancer cells [2],other results
< 100 nM,"N#Cc1ccc(N2CCN(C(=O)c3cccc(OCCOc4cccc5c4CN(c4cn[nH]c(=O)c4C(F)(F)F)C5)c3)CC2)nc1 [Example 39, 6-[4-([3-[2-([2-[6-Oxo-5-(trifluoromethyl)-1,6-dihydropyridazin-4-yl]-2,3-dihydro-1H-isoindol-4-yl]oxy)ethoxy]phenyl]carbonyl)piperazin-1-yl]pyridine-3-carbonitrile]",dose-dependent decrease in growth,–
< 100 nM,"N#Cc1ccc(N2CCN(C(=O)CCOC[C@@H]3c4ccccc4CN3c3cn[nH]c(=O)c3C(F)(F)F)CC2)nc1 (single isomer, unassigned) [Example 93 Isomer A]",dose-dependent decrease in growth,tumor growth ([4]; 100 mg/kg S.C. BID*21 days): significantly reduce tumor growth; tumor growth ([5]; 100 mg/kg S.C. BID*21 days): significantly reduce tumor growth
